Reference: US20230310428A1, “EGFR INHIBITOR AND PREPARATION METHOD AND USE THEREOF” (HONGYUN BIOTECH CO., LTD., priority 2020, published 2023)

Columns and labels:
Assay in all cases: Growth inhibitory activity of compounds on BaF3 cell lines stably transfected with kinase (MTS, 48 h)
Assay type in all cases: cell-based
[1] = target: T1, various mutants of kinase EGFR (BaF3 cell lines stably transfected with kinase) (Homo sapiens, UniProt P00533, L858R); settings: BaF3 cells stably transfected with EGFR L858R, read-out: IC50, growth inhibition, L858R
T1 construct: expressed in transfected cells; host or cells: BaF3
Protocol: (§1) The activity of compounds against various mutants of kinase EGFR was evaluated by their effect of inhibiting growth of BaF3 cell lines stably transfected with kinase. The specific test method was given as follows:
(§2) 1) Culture medium: DMEM (Dulbecco’s modified eagle medium) or RPMI 1640 (containing 10% fetal bovine serum, 100 µg/mL ampicillin, 100 µg/mL streptomycin).
(§3) 2) Reagent: MTS reaction solution (containing 2 mg/mL of MTS [3-(4,5-dimethylthiazol-2-yl)-5-(3-carboxymethoxyphenyl)-2-(4-sulfophenyl)-2H-tetrazoliu m, inner Salt]; 100 µg/mL of PES ([…])).
(§4) 3) Compound test: cells were incubated into a 96-well culture plate, the volume of cytosol was 90 µL, and then 10 µL of the compound at each gradient concentration was added. That is, the highest concentration was 10 µM, which was diluted stepwise by ⅓, and 8 concentration points were set in total; 0.1% DMSO (dimethyl sulfoxide) was contained in the system. The cell plate with uniformly mixed compound was cultured in a cell culture incubator (37° C.; 5% CO2) for 48 h, then 20 µL of MTS reaction solution was added, uniformly mixed and incubated in the cell culture incubator (37° C.; 5% CO2) for 1-4 h. OD values at 490 nm were measured by a microplate reader (VARIOSKAN FLASH, Thermo). Two parallels were set in each group of experiments, with 0.1% (a final concentration) DMSO as a negative control, and a culture medium without cells and compounds as a blank control. The cell growth inhibition rate was calculated by the following formula: […]
(§5) 4) IC50 calculation: The semi-inhibitory concentration of the compounds acting on cells was calculated using GradPad Prism 5 software according to the measured cell growth inhibition rate.

[2] = target: T2, various mutants of kinase EGFR (BaF3 cell lines stably transfected with kinase) (Homo sapiens, UniProt P00533, L858R/T790M); settings: BaF3 cells stably transfected with EGFR L858R/T790M, read-out: IC50, growth inhibition, L858R/T790M
T2 construct: expressed in transfected cells; host or cells: BaF3
Protocol: as §1, §2, §3, §4, §5

[3] = target: T3, various mutants of kinase EGFR (BaF3 cell lines stably transfected with kinase) (Homo sapiens, UniProt P00533, T790M/C797S, form not given); settings: BaF3 cells stably transfected with EGFR Δ19Del/T790M/C797S, read-out: IC50, growth inhibition, Δ19Del/T790M/C797S
T3 construct: other: BaF3 cells stably transfected with EGFR Δ19Del/T790M/C797S; MTS, 48; other: BaF3 cell line stably transfected with EGFR Δ19Del/T790M/C7
Protocol: as §1, §2, §3, §4, §5

[4] = target: T4, various mutants of kinase EGFR (BaF3 cell lines stably transfected with kinase) (Homo sapiens, UniProt P00533); settings: BaF3 cells stably transfected with EGFR Δ19Del, read-out: IC50, growth inhibition, Δ19Del
T4 construct: other: BaF3 cells stably transfected with EGFR Δ19Del; MTS, 48 h; other: BaF3 cell line stably transfected with EGFR Δ19Del
Protocol: as §1, §2, §3, §4, §5

[5] = target: T5, various mutants of kinase EGFR (BaF3 cell lines stably transfected with kinase) (Homo sapiens, UniProt P00533, T790M, form not given); settings: BaF3 cells stably transfected with EGFR Δ19Del/T790M, read-out: IC50, growth inhibition, Δ19Del/T790M
T5 construct: other: BaF3 cells stably transfected with EGFR Δ19Del/T790M; MTS, 48 h; other: BaF3 cell line stably transfected with EGFR Δ19Del/T790M; MTS, 48
Protocol: as §1, §2, §3, §4, §5

[6] = target: T6, various mutants of kinase EGFR (BaF3 cell lines stably transfected with kinase) (Homo sapiens, UniProt P00533, C797S/L858R/T790M); settings: BaF3 cells stably transfected with EGFR L858R/T790M/C797S, read-out: IC50, growth inhibition, L858R/T790M/C797S
T6 construct: expressed in transfected cells; host or cells: BaF3
Protocol: as §1, §2, §3, §4, §5

T5 sequence (P00533 with tags, fused parts or gaps DEL746-750/T790M, form open): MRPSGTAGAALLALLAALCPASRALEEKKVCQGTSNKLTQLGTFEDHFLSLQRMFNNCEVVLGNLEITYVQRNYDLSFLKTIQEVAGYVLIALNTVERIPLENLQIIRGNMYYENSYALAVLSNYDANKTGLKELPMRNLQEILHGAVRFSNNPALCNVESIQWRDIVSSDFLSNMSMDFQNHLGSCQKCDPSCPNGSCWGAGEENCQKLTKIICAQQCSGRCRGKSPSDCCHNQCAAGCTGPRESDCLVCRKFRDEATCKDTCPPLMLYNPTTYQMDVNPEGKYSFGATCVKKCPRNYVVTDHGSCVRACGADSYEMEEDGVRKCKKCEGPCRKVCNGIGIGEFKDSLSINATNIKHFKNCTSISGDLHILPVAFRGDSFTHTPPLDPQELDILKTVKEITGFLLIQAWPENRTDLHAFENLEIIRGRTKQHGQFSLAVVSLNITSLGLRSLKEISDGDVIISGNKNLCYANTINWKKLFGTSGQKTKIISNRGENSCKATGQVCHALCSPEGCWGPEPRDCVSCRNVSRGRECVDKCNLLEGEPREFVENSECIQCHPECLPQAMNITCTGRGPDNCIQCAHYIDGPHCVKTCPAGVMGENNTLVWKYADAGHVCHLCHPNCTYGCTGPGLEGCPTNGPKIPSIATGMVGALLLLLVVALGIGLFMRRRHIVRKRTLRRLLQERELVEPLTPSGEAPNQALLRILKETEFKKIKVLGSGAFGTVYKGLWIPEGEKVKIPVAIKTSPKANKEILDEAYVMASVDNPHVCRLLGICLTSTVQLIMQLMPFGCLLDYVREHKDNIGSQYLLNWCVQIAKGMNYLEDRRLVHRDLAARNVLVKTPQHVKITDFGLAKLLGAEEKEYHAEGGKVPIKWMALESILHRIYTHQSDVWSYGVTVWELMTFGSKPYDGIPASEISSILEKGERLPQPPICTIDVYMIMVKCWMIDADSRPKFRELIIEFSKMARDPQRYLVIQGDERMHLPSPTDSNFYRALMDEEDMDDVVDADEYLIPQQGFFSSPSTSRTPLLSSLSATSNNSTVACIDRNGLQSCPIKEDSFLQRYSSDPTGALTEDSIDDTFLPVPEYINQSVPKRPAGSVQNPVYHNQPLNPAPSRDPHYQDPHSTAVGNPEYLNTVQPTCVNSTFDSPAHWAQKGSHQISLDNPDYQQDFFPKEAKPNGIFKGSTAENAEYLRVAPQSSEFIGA
T2 sequence (P00533 25-1210 T790M/L858R): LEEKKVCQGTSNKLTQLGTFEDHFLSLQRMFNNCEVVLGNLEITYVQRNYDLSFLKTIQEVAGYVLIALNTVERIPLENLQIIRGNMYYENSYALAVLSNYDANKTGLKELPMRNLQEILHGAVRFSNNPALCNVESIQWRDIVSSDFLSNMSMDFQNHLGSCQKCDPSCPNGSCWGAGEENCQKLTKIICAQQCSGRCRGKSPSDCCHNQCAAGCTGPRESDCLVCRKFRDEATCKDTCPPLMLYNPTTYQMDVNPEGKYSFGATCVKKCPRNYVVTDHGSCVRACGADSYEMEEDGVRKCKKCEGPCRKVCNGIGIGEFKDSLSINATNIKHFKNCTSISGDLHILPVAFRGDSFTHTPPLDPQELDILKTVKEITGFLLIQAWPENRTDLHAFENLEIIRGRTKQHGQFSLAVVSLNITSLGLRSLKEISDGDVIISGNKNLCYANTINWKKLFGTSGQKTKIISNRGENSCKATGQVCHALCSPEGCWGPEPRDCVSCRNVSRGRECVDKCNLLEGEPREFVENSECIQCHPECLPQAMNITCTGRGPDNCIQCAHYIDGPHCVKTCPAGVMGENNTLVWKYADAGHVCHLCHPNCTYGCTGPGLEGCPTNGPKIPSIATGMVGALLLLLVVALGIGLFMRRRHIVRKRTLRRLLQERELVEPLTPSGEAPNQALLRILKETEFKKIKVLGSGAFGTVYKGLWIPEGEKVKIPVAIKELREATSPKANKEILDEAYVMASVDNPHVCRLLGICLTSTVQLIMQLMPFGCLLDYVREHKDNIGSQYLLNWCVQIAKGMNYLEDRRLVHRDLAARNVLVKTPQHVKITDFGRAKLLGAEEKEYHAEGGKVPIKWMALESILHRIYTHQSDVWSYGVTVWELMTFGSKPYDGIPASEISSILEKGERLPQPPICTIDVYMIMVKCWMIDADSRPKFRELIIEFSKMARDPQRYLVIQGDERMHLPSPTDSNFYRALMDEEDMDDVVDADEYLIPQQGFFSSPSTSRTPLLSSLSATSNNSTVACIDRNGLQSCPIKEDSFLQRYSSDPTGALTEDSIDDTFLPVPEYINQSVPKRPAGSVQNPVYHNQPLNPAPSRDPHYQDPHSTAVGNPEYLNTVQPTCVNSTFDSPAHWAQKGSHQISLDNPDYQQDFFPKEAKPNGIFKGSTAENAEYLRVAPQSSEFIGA
T1 sequence (P00533 25-1210 L858R): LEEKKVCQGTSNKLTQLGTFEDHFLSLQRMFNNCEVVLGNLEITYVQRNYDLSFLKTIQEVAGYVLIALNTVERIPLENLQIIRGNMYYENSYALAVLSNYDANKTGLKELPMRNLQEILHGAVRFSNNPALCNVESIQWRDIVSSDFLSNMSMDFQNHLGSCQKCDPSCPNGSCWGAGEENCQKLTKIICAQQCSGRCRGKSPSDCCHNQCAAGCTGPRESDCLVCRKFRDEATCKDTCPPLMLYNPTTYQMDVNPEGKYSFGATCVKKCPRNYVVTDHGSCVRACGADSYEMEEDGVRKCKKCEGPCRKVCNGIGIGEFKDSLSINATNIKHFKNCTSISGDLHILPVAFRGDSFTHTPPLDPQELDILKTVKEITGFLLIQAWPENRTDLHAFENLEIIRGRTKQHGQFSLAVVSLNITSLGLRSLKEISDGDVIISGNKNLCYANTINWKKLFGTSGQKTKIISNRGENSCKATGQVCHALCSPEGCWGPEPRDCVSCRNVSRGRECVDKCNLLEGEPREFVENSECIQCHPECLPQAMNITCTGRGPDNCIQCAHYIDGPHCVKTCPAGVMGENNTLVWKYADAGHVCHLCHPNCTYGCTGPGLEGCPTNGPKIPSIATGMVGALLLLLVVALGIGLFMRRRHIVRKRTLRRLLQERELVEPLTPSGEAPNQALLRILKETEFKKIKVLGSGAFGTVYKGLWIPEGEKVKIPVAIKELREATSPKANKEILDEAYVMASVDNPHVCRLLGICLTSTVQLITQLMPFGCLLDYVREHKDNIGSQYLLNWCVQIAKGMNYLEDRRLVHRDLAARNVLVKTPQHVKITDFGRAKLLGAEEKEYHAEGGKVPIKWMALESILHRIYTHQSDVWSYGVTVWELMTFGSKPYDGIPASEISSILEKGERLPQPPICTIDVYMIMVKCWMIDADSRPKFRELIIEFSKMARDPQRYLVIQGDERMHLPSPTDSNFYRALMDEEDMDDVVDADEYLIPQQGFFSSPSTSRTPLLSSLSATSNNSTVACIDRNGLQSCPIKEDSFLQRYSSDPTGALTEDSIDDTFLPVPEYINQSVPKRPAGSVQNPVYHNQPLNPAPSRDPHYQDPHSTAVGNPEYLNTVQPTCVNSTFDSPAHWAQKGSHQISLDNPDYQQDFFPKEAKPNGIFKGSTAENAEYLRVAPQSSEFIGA
T6 sequence (P00533 25-1210 T790M/C797S/L858R): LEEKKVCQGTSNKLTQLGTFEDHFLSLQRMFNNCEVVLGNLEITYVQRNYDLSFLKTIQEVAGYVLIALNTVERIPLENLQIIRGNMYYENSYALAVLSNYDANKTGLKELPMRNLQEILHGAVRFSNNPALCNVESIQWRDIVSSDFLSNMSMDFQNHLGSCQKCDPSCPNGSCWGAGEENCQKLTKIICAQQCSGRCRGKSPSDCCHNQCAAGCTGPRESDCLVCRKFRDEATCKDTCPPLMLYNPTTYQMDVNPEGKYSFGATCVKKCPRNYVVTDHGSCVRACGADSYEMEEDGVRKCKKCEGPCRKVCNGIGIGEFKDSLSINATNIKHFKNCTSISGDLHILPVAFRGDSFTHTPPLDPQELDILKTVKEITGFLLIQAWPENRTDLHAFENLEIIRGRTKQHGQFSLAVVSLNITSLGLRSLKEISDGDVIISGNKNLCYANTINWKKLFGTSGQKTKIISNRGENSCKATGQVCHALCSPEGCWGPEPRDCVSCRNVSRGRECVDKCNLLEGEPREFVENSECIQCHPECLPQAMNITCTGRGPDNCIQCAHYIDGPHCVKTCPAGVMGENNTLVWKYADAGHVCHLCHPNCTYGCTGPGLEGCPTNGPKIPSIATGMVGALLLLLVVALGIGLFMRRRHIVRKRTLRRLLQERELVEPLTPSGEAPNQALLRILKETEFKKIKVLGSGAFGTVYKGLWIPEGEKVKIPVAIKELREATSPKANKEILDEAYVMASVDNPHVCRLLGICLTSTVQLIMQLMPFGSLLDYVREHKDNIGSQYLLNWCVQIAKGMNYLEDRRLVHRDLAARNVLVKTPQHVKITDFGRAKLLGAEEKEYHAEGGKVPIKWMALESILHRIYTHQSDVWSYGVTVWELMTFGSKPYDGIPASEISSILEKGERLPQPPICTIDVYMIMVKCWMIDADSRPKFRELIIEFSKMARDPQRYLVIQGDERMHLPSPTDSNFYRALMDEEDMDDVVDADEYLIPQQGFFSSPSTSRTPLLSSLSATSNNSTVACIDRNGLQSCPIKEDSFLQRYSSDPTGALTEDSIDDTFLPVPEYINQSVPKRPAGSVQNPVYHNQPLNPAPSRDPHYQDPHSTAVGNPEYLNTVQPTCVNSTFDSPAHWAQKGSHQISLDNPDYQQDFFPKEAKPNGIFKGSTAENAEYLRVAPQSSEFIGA

| SMILES | IC50 [1] [µM] | IC50 [2] [µM] | IC50 [3] [µM] | IC50 [4] [µM] | IC50 [5] [µM] | IC50 [6] [µM] |
| --- | --- | --- | --- | --- | --- | --- |
| COc1cc(N2CCC(N3CCN(C)CC3)CC2)c(CC2CC2)cc1Nc1ncc(Br)c(Nc2ccc3nccnc3c2N(C)S(C)(=O)=O)n1 [Compound I-10] | ≤ 0.05 | ≤ 0.05 | ≤ 0.05 | 0.05 to 0.5 | ≤ 0.05 | ≤ 0.05 |
| COc1cc(N2CCC(N3CCN(C)CC3)CC2)c(Cc2ccccc2)cc1Nc1ncc(Br)c(Nc2ccc3nccnc3c2N(C)S(C)(=O)=O)n1 [Compound I-11] | 0.05 to 0.5 | 0.5 to 2.5 | 0.5 to 2.5 | 0.5 to 2.5 | 0.5 to 2.5 | 0.5 to 2.5 |
| COc1cc(N2CCN(C)CC2)c(C)cc1Nc1ncc(Br)c(Nc2ccc3nccnc3c2N(C)S(C)(=O)=O)n1 [Compound I-12] | ≤ 0.05 | ≤ 0.05 | ≤ 0.05 | 0.05 to 0.5 | ≤ 0.05 | ≤ 0.05 |
| COc1cc(N2CCC(N(C)C)CC2)c(C)cc1Nc1ncc(Br)c(Nc2ccc3nccnc3c2N(C)S(C)(=O)=O)n1 [Compound I-13] | ≤ 0.05 | ≤ 0.05 | ≤ 0.05 | ≤ 0.05 | ≤ 0.05 | ≤ 0.05 |
| COc1cc(N2CCC(N(C)C)C2)c(C)cc1Nc1ncc(Br)c(Nc2ccc3nccnc3c2N(C)S(C)(=O)=O)n1 (stereo not drawn) [Compound I-14] | ≤ 0.05 | ≤ 0.05 | ≤ 0.05 | 0.05 to 0.5 | ≤ 0.05 | ≤ 0.05 |
| CCc1cc(Nc2ncc(Br)c(Nc3ccc4nccnc4c3N(C)S(C)(=O)=O)n2)c(OC)cc1N1CCN(C)CC1 [Compound I-15] | ≤ 0.05 | ≤ 0.05 | ≤ 0.05 | ≤ 0.05 | ≤ 0.05 | ≤ 0.05 |
| CCc1cc(Nc2ncc(Br)c(Nc3ccc4nccnc4c3N(C)S(C)(=O)=O)n2)c(OC)cc1N1CCC(N(C)C)CC1 [Compound I-16] | ≤ 0.05 | ≤ 0.05 | ≤ 0.05 | ≤ 0.05 | ≤ 0.05 | ≤ 0.05 |

Results, then the compound that gave them:

| IC50 [1] [µM] | IC50 [2] [µM] | IC50 [3] [µM] | IC50 [4] [µM] | IC50 [5] [µM] | IC50 [6] [µM] | SMILES |
| --- | --- | --- | --- | --- | --- | --- |
| ≤ 0.05 | ≤ 0.05 | ≤ 0.05 | ≤ 0.05 | ≤ 0.05 | ≤ 0.05 | COc1cc(N2CCC(N3CCN(C)CC3)CC2)ccc1Nc1ncc(Br)c(Nc2ccc3nccnc3c2N(C)S(C)(=O)=O)n1 [Compound I-1] |
| ≤ 0.05 | ≤ 0.05 | ≤ 0.05 | ≤ 0.05 | ≤ 0.05 | ≤ 0.05 | COc1cc(N2CCC(N3CCN(C)CC3)CC2)c(C)cc1Nc1ncc(Br)c(Nc2ccc3nccnc3c2N(C)S(C)(=O)=O)n1 [Compound I-2] |
| ≤ 0.05 | ≤ 0.05 | ≤ 0.05 | ≤ 0.05 | ≤ 0.05 | ≤ 0.05 | CCc1cc(Nc2ncc(Br)c(Nc3ccc4nccnc4c3N(C)S(C)(=O)=O)n2)c(OC)cc1N1CCC(N2CCN(C)CC2)CC1 [Compound I-3] |
| 0.05 to 0.5 | 0.05 to 0.5 | ≤ 0.05 | 0.05 to 0.5 | 0.05 to 0.5 | 0.05 to 0.5 | COc1nc(N2CCC(N3CCN(C)CC3)CC2)ccc1Nc1ncc(Br)c(Nc2ccc3nccnc3c2N(C)S(C)(=O)=O)n1 [Compound I-4] |
| ≤ 0.05 | ≤ 0.05 | ≤ 0.05 | 0.05 to 0.5 | ≤ 0.05 | ≤ 0.05 | CCc1cc(Nc2ncc(Br)c(Nc3ccc4nccnc4c3N(C)S(C)(=O)=O)n2)c(OC)nc1N1CCC(N2CCN(C)CC2)CC1 [Compound I-6] |
| 0.05 to 0.5 | 0.05 to 0.5 | ≤ 0.05 | 0.05 to 0.5 | 0.05 to 0.5 | 0.05 to 0.5 | CN1CCN(C2CCN(c3ccc(Nc4ncc(Br)c(Nc5ccc6nccnc6c5N(C)S(C)(=O)=O)n4)c(OC(F)(F)F)c3)CC2)CC1 [Compound I-7] |
| ≤ 0.05 | ≤ 0.05 | ≤ 0.05 | ≤ 0.05 | ≤ 0.05 | ≤ 0.05 | C=Cc1cc(Nc2ncc(Br)c(Nc3ccc4nccnc4c3N(C)S(C)(=O)=O)n2)c(OC(F)(F)F)cc1N1CCC(N2CCN(C)CC2)CC1 [Compound I-9] |
